Source: patent US12336982B2 (RODEO THERAPEUTICS CORPORATION, priority 2018, dated 2025)

molecular target: T1, recombinant 15-PGDH (Homo sapiens, UniProt P15428); assay type: biochemical; settings: recombinant human 15-PGDH, in vitro; read-out: PDGH Assay-IC50
T1 sequence (P15428 1-266): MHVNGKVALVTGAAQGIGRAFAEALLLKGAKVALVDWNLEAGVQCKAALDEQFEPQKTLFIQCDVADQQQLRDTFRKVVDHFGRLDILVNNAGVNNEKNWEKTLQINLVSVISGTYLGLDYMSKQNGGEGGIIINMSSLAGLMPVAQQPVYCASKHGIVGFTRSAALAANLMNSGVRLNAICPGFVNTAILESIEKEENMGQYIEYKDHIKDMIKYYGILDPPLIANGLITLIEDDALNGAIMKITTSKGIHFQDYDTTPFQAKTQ
Source text: The Recombinant 15-PGDH is human unless otherwise specified.

`COCC[S+]([O-])c1sc2nc(-c3cnc(N)nc3)cc(-c3cnn(C)c3)c2c1N` (centres unmarked) [Example 196] and `Cn1cc(-c2cc(-c3cnc(N)nc3)nc3sc([S+]([O-])C4CCC4)c(N)c23)cn1` (centres unmarked) [Example 169] cannot be ordered by IC50: less than 2.5 nM for the first, less than 2.5 nM for the second.

Going from `COCC[S@+]([O-])c1sc2nc(-c3cnc4nn(C)cc4c3)cc(-c3ccnn3C)c2c1N` [Example 336] to `COCC[S@@+]([O-])c1sc2nc(-c3cnc4nn(C)cc4c3)cc(-c3ccnn3C)c2c1N` [Example 335], the IC50 falls from no less than 10 nM to less than 2.5 nM.

`Cc1nn(C)cc1-c1cc(-c2cnc(N)nc2)nc2sc([S+]([O-])C3CCC3)c(N)c12` (centres unmarked) [Example 218] and `Cc1cc(-c2cc(-c3cnc(N)nc3)nc3sc([S+]([O-])C4CCC4)c(N)c23)n(C)n1` (centres unmarked) [Example 355] cannot be ordered by IC50: less than 2.5 nM for the first, less than 2.5 nM for the second.

First: COCC[S@+]([O-])c1sc2nc(-c3cnc(N)nc3)cc(-c3ccccc3)c2c1N [Example 88]
Second: COCC[S+]([O-])c1sc2nc(-c3cnc(NCCO)nc3)cc(-c3ccccc3)c2c1N (centres unmarked) [Example 126]
The IC50 of the first is higher: no less than 10 nM for the first, less than 2.5 nM for the second. The second is the more potent here.

`COCC[S+]([O-])c1sc2nc(-c3cnc4ncn(C)c4c3)cc(-c3ccccc3)c2c1N` (centres unmarked) [Example 361] and `COCC[S+]([O-])c1sc2nc(-c3cnc4nn(C)cc4c3)cc(-c3ccccc3)c2c1N` (centres unmarked) [Example 124] cannot be ordered by IC50: less than 2.5 nM for the first, less than 2.5 nM for the second.

Compared with `COCCC[S@@+]([O-])c1sc2nc(-c3cncnc3)cc(-c3cnccn3)c2c1N` [Example 234], `COCCC[S+]([O-])c1sc2nc(-c3cncnc3)cc(C(F)(F)F)c2c1N` (centres unmarked) [Example 131] is lower in IC50: no less than 10 nM for the first, less than 2.5 nM for the second.

`COCCC[S+]([O-])c1sc2nc(-c3cnc4nn(CCO)cc4c3)cc(-c3ccccc3)c2c1N` (centres unmarked) [Example 269] and `COCC[S+]([O-])c1sc2nc(-c3cnc4nn(CCO)cc4c3)cc(-c3ccccc3)c2c1N` (centres unmarked) [Example 263] cannot be ordered by IC50: less than 2.5 nM for the first, less than 2.5 nM for the second.

First: CN(CCO)c1ncc(-c2cc(-c3ccccc3)c3c(N)c([S@@+]([O-])C4CCC4)sc3n2)cn1 [Example 180]
Second: Nc1c([S+]([O-])C2CCC2)sc2nc(-c3cnc(CO)nc3)cc(-c3ccccc3)c12 (centres unmarked) [Example 221]
The IC50 of the first is higher: no less than 10 nM for the first, less than 2.5 nM for the second.

Compared with `COCCC[S@@+]([O-])c1sc2nc(-c3cccnc3)nc(-c3ccccc3)c2c1N` [Example 54], `COCC[S@+]([O-])c1sc2nc(-c3cnc4nn(C)cc4c3)nc(-c3ccccc3)c2c1N` [Example 434] is higher in IC50: less than 2.5 nM for the first, no less than 10 nM for the second.

`COCC[S@@+]([O-])c1sc2nc(-c3cncnc3)cc(C3CCC3)c2c1N` [Example 252] and `COCC[S@@+]([O-])c1sc2nc(-c3cnc(N)nc3)cc(C3CCC3)c2c1N` [Example 346] cannot be ordered by IC50: less than 2.5 nM for the first, less than 2.5 nM for the second.

`Nc1c([S+]([O-])C2CCC2)sc2nc(-c3cnc4c(c3)CNC4=O)cc(-c3ncccn3)c12` (centres unmarked) [Example 304] and `COCC[S@+]([O-])c1sc2nc(-c3cnc4c(c3)CNC4=O)cc(-c3ccccc3)c2c1N` [Example 243] cannot be ordered by IC50: 2.5 to 10 nM for the first, no less than 10 nM for the second.

Compared with `COCC[S@@+]([O-])c1sc2nc(-c3cccnc3)cc(C(F)(F)F)c2c1N` [Example 80], `COCC[S@+]([O-])c1sc2nc(-c3cccnc3)cc(C(F)(F)F)c2c1N` [Example 81] is higher in IC50: less than 2.5 nM for the first, no less than 10 nM for the second. The first is the more potent here.

`COCCC[S@@+]([O-])c1sc2nc(-c3cnc(N)nc3)cc(C3CC3)c2c1N` [Example 146] and `COCC[S+]([O-])c1sc2nc(-c3cnc(N)nc3)cc(C3CC3)c2c1N` (centres unmarked) [Example 110] cannot be ordered by IC50: less than 2.5 nM for the first, less than 2.5 nM for the second.

`COCC[S+]([O-])c1sc2nc(-c3cnc(N)nc3)cc(C(F)(F)F)c2c1N` (centres unmarked) [Example 132] and `COCC[S@@+]([O-])c1sc2nc(-c3cnc(NCCO)nc3)cc(C(F)(F)F)c2c1N` [Example 206] cannot be ordered by IC50: less than 2.5 nM for the first, less than 2.5 nM for the second.

Compared with `COCCC[S+]([O-])c1sc2nc(-c3cnn(CCO)c3)cc(-c3ccccc3)c2c1N` (centres unmarked) [Example 274], `COCC[S+]([O-])c1sc2nc(-c3cnc4nncn4c3)cc(-c3ccccc3)c2c1N` (centres unmarked) [Example 358] is higher in IC50: less than 2.5 nM for the first, no less than 10 nM for the second. The first is the more potent here.

`Nc1c([S@+]([O-])C2CCC2)sc2nc(-c3cncnc3)cc(-c3ccon3)c12` [Example 309] and `Cn1ccc(-c2cc(-c3cncnc3)nc3sc([S+]([O-])C4CCC4)c(N)c23)n1` (centres unmarked) [Example 280] cannot be ordered by IC50: less than 2.5 nM for the first, less than 2.5 nM for the second.

`CN(C)c1cc(-c2cc(-c3cnc(N)nc3)nc3sc([S@+]([O-])C4CCC4)c(N)c23)n(C)n1` [Example 415] and `Nc1ncc(-c2cc(-c3cncc(F)c3)c3c(N)c([S+]([O-])C4CCC4)sc3n2)cn1` (centres unmarked) [Example 67] cannot be ordered by IC50: less than 2.5 nM for the first, less than 2.5 nM for the second.

`Cn1ncc(-c2cc(C3CCC3)c3c(N)c([S+]([O-])C4CCC4)sc3n2)cc1=O` (centres unmarked) [Example 398] and `Nc1c([S+]([O-])C2CCC2)sc2nc(-c3cncnc3)cc(C3CCC3)c12` (centres unmarked) [Example 255] cannot be ordered by IC50: less than 2.5 nM for the first, less than 2.5 nM for the second.

`COCC[S+]([O-])c1sc2nc(-c3cnc4nn(C)cc4c3)cc(-c3ccnn3C)c2c1N` (centres unmarked) [Example 334] and `COCC[S@@+]([O-])c1sc2nc(-c3cnc4nn(C)cc4c3)cc(-c3ccn(C)n3)c2c1N` [Example 343] cannot be ordered by IC50: less than 2.5 nM for the first, less than 2.5 nM for the second.

`Nc1c([S+]([O-])C2CCC2)sc2nc(-c3cncnc3)cc(-c3ccno3)c12` (centres unmarked) [Example 311] and `Cc1cc(-c2cc(-c3cncnc3)nc3sc([S+]([O-])C4CCC4)c(N)c23)ccn1` (centres unmarked) [Example 154] cannot be ordered by IC50: less than 2.5 nM for the first, less than 2.5 nM for the second.

First: COCCC[S+]([O-])c1sc2nc(-c3cnc4c(cnn4C)c3)cc(-c3cccnc3)c2c1N (centres unmarked) [Example 74]
Second: COCCC[S+]([O-])c1sc2nc(-c3cnc4c(cnn4C)c3)cc(C3CC3)c2c1N (centres unmarked) [Example 172]
The IC50 of the first is lower: less than 2.5 nM for the first, 2.5 to 10 nM for the second.

`Nc1c([S@+]([O-])C2CCC2)sc2nc(-c3ccc(NCCO)nc3)cc(-c3ccccn3)c12` [Example 97] and `Nc1c([S@@+]([O-])C2CCC2)sc2nc(-c3ccc(NCCO)nc3)cc(-c3ccccn3)c12` [Example 96] cannot be ordered by IC50: less than 2.5 nM for the first, less than 2.5 nM for the second.

`Cn1nccc1-c1cc(-c2cnc(NCCO)nc2)nc2sc([S@@+]([O-])C3CCC3)c(N)c12` [Example 314] and `Cn1nccc1-c1cc(-c2cnc(O)nc2)nc2sc([S@@+]([O-])C3CCC3)c(N)c12` [Example 225] cannot be ordered by IC50: no less than 10 nM for the first, no less than 10 nM for the second.

`COCC[S+]([O-])c1sc2nc(-c3cnc4c(c3)ncn4C)cc(-c3ccnn3C)c2c1N` (centres unmarked) [Example 379] and `COCC[S+]([O-])c1sc2nc(-c3cnc4nn(C)nc4c3)cc(-c3ccnn3C)c2c1N` (centres unmarked) [Example 380] cannot be ordered by IC50: less than 2.5 nM for the first, less than 2.5 nM for the second.

`Nc1c([S+]([O-])C2CCC2)sc2nc(-c3ccc(NCCO)nc3)cc(-c3ccccc3)c12` (centres unmarked) [Example 63] and `Nc1c([S+]([O-])C2CCC2)sc2nc(-c3cnc(NCCOCCO)nc3)cc(-c3ccccc3)c12` (centres unmarked) [Example 141] cannot be ordered by IC50: less than 2.5 nM for the first, less than 2.5 nM for the second.

First: COCC[S+]([O-])c1sc2nc(-c3ccc(NC(C)=O)nc3)cc(-c3ccnn3C)c2c1N (centres unmarked) [Example 393]
Second: COCC[S+]([O-])c1sc2nc(-c3cnn4ccnc4c3)cc(-c3ccnn3C)c2c1N (centres unmarked) [Example 318]
The IC50 of the first is higher: 2.5 to 10 nM for the first, less than 2.5 nM for the second.

`Cn1nccc1-c1cc(-c2cnc3c(c2)nnn3C)nc2sc([S+]([O-])C3CCC3)c(N)c12` (centres unmarked) [Example 325] and `Cn1ccc(-c2cc(-c3cnc(NCCO)nc3)nc3sc([S+]([O-])C4CCC4)c(N)c23)n1` (centres unmarked) [Example 340] cannot be ordered by IC50: less than 2.5 nM for the first, less than 2.5 nM for the second.

`COCC[S@@+]([O-])c1sc2nc(-c3cnc4ncn(C)c4c3)cc(C3CC3)c2c1N` [Example 405] and `COCC[S@@+]([O-])c1sc2nc(-c3cnc(NCCO)nc3)cc(C3CCC3)c2c1N` [Example 349] cannot be ordered by IC50: less than 2.5 nM for the first, less than 2.5 nM for the second.

Compared with `COCCC[S+]([O-])c1sc2nc(-c3ccc(NCCO)nc3)cc(-c3ccc(F)cc3)c2c1N` (centres unmarked) [Example 70], `COCC[S+]([O-])c1sc2nc(-c3cnc4c(c3)CN(C)C4=O)cc(-c3ccccc3)c2c1N` (centres unmarked) [Example 384] is lower in IC50: 2.5 to 10 nM for the first, less than 2.5 nM for the second.

Compared with `COCCC[S+]([O-])c1sc2nc(-c3cnn(C)c3)cc(C(F)(F)F)c2c1N` (centres unmarked) [Example 427], `COCC[S@+]([O-])c1sc2nc(-c3cnc4nn(C)cc4c3)cc(C(F)(F)F)c2c1N` [Example 419] is higher in IC50: less than 2.5 nM for the first, no less than 10 nM for the second. The first is the more potent here.

`Nc1c([S+]([O-])C2CCC2)sc2nc(-c3cncnc3)cc(-c3ccc(C4COC4)cc3)c12` (centres unmarked) [Example 114] and `Cc1cc(-c2cncnc2)nc2sc([S+]([O-])C3CCC3)c(N)c12` (centres unmarked) [Example 164] cannot be ordered by IC50: less than 2.5 nM for the first, less than 2.5 nM for the second.

`COCC[S@@+]([O-])c1sc2nc(-c3cnc4nn(C)cc4c3)cc(C(C)C)c2c1N` [Example 408] and `COCCn1ccc(-c2cc(-c3cnc4nn(C)cc4c3)nc3sc([S+]([O-])CCOC)c(N)c23)n1` (centres unmarked) [Example 386] cannot be ordered by IC50: less than 2.5 nM for the first, less than 2.5 nM for the second.

Compared with `COCC[S+]([O-])c1sc2nc(-c3ccc(NC(=O)OC)nc3)cc(C3CCC3)c2c1N` (centres unmarked) [Example 391], `CNc1ncc(-c2cc(-c3ccn(C)n3)c3c(N)c([S+]([O-])CCOC)sc3n2)cn1` (centres unmarked) [Example 339] is lower in IC50: 2.5 to 10 nM for the first, less than 2.5 nM for the second. The second is the more potent here.

First: Nc1c([S@+]([O-])C2CCC2)sc2nc(-c3cc(=O)[nH]cn3)cc(-c3ccccc3)c12 [Example 219]
Second: CN(C)CCOc1ncc(-c2cc(-c3ccccc3)c3c(N)c([S+]([O-])C4CCC4)sc3n2)cn1 (centres unmarked) [Example 47]
The IC50 of the first is lower: less than 2.5 nM for the first, 2.5 to 10 nM for the second.

`Nc1c([S+]([O-])C2CCC2)sc2nc(-c3cnc(N4CC(O)C4)nc3)cc(C3CC3)c12` (centres unmarked) [Example 250] and `Nc1c([S+]([O-])C2CCC2)sc2nc(-c3cncnc3)cc(C34CC(C3)C4)c12` (centres unmarked) [Example 257] cannot be ordered by IC50: less than 2.5 nM for the first, less than 2.5 nM for the second.

`Cn1cc(-c2cc(C(F)(F)F)c3c(N)c([S+]([O-])C4CCC4)sc3n2)cn1` (centres unmarked) [Example 428] and `Nc1c([S+]([O-])C2CCC2)sc2nc(-c3cccnc3)nc(C3CC3)c12` (centres unmarked) [Example 189] cannot be ordered by IC50: less than 2.5 nM for the first, less than 2.5 nM for the second.

Going from `Nc1c([S@+]([O-])C2CCC2)sc2nc(-c3cnc(NCCO)nc3)cc(-c3cccnc3)c12` (stereo in doubt) [Example 103] to `Nc1c([S@@+]([O-])C2CCC2)sc2nc(-c3cnc(NCCO)nc3)cc(-c3ccccn3)c12` [Example 95], the IC50 rises from less than 2.5 nM to no less than 10 nM. The first is the more potent here.
